Data from patent US12329883B2, “Soft tissue repair implants comprising hydroxybutyrate” (Davol Inc., priority 2017, dated 2025).

Test system: cathelicidin LL-37 expression
Assay: cathelicidin LL-37 immunolabeling of primary macrophages exposed for 18 hours to samples
Format: cell-based, C57bl/6 mice
Settings: primary bone marrow-derived macrophages, 18 hours exposure
Procedure: Primary macrophages were differentiated from mononuclear cells harvested from the bone marrow of C57bl/6 mice. A solution of these primary macrophages was divided into 18 wells, each of which was exposed for 18 hours to one of samples nos. 1-18; i.e., a composition comprising either a species of interest dissolved in cell growth media or a solubilized biological scaffold dissolved in cell growth media. […]
After immunolabeling preparation, images were taken of the counterstained macrophages for three 20× fields for each well using a Zeus live-cell microscope. […] The light exposure time that produced the best images was determined, and the remaining samples were imaged at this light exposure time.
After immunolabeling, each macrophage nucleus appeared blue in the immunolabeling images and cathelicidin LL-37 appeared green. The percentages of macrophages expressing cathelicidin LL-37 shown in FIG. 7 were calculated by dividing the number of cathelicidin LL-37-expressing cells in each image (determined by the number of blue nuclei located in close proximity to green cathelicidin LL-37) by the number of cells in each image (determined by the number of blue nuclei in each image). The identification of cathelicidin LL-37 and cell nuclei in the images was determined with the aid of CellProfiler, a […] software analyzer (available at http://www.cellprofiler.org). […]

O=C(O)CCCO [4-hydroxybutyrate]
cathelicidin LL-37 expression (percent of cathelicidin LL-37 expressing cells, FIG. 6 and FIG. 7) (Example 1, 4HB 12 mM): strongly promoted | cathelicidin LL-37 expression (percent of cathelicidin LL-37 expressing cells, FIG. 8 and FIGS. 9-16) (Example 2, concentration series of Table 2): effectively induce
